Test results from US20220362262A1, “METHODS AND COMPOSITIONS FOR TISSUE REGENERATION” (Institute of Zoology, Chinese Academy of Sciences, priority 2019, published 2022).
“Also recorded” adds a separate entry of the source. Where two headings read alike, the source gives them in different places.

Experiments:
cryoinjured TA muscle [1] = assay: Muscle regeneration after cryoinjury: regenerative index, myogenic proteins, myofiber diameter, grip strength after bolus injection; assay type: in vivo, mice; conditions: for grip strength: 14 days post-injury, 6-week old mice, prostaglandin at 0 h, rosiglitazone at 24 h post-injury; for hypertrophic growth (myofiber cross-sectional Feret diameters): prostaglandin at day 0, rosiglitazone at day 1; for regenerative index (fraction of nuclei in embryonic MHC-positive myofibers): single bolus, combinations: prostaglandin at day 0, rosiglitazone at day 1, relative to DMSO vehicle
Description: (§1) Some tissues were flash frozen for cryosectioning.

cryoinjured TA muscle [2] = assay: PGI2 bolus in cryoinjured TA muscle: cAMP, PPARs, H3K9ac and myogenic markers; assay type: in vivo, mice
[3] = system: pure primary human myoblasts; assay: Pure primary human myoblasts treated with PGI2-related drugs (Western blot, qRT-PCR); assay type: cell-based; conditions: for H3K9ac and MyoD protein (Western blot) / PPARG protein levels (Western blot): pure primary human myoblasts, relative to DMSO
primary human myoblasts = assay: Proliferation of primary human myoblasts under PGI2 treatment; assay type: cell-based
[4] = system: muscle stem cells and myoblasts in gastrocnemius, quadriceps and TA muscle; assay: Stem cell and myoblast activation in skeletal muscles without injury, immunofluorescence 2 days after single bolus; assay type: in vivo, mice
Description: as §1

[5] = system: fibrosis in TA muscle, liver, skin and heart of 2-year old mice; assay: Aging-induced fibrosis and fibrotic precursors in 2-year old mice after daily injection; assay type: in vivo; conditions: for relative changes in the % fibrotic area (Masson trichrome staining) / relative changes in the percentage fraction of fibrotic precursors (PGDFRA-positive and Ki67-positive): 7 days post-injection, 2-year old mice; for relative changes in the % fibrotic area (Masson trichrome staining) / relative changes in the percentage fraction of fibrotic precursors (PGDFRA-positive and Ki67-positive) / aging-induced fibrosis (fibrotic area) in multiple non-skeletal muscle tissues: daily injection
Description: as §1

PPARA = conditions: agonist of PPARA; cited from earlier work
PPARG = conditions: agonist of PPARG; cited from earlier work
[6] = system: primary human myoblasts / myocytes; assay: Etomoxir (CPT1 inhibitor) at different time-windows of myoblast differentiation: cell numbers, Western blot; assay type: cell-based
human myocytes = assay: Seahorse O2 consumption rates in differentiating myocytes; assay type: cell-based; conditions: etomoxir at early 0-12 h and 12-24 h time-windows only
Experimental: HSKM progenitors were seeded onto Seahorse XF96 Cell Culture Microplate (Agilent), pre-coated with gelatin (0.1%, Merck-Millipore), in growth media at 10,000 cells per well. […] Before performing the Seahorse XF cell Mito Stress Test assay, cell culture media were replaced with assay media (Seahorse XF DMEM Medium, pH 7.4, 2 mM pyruvate, 2 mM glutamine) (Agilent) and incubated in a CO2-free incubator at 37° C. for 1 hour to equilibrate temperature and pH for each well. During the assay, Oligomycin (2 uM, Agilent), FCCP (0.5 uM, Agilent), and a mixture of Antimycin A and Rotenone (0.5 uM, Agilent), were injected sequentially and measurements were taken according to manufacturer's instructions. The data was analyzed using WAVE software.

[7] = system: GFP+ human myocytes engrafted into cryoinjured TA muscle; conditions: myoblasts pre-treated 0-24 h, injected 24 h after cryoinjury
Description: as §1

[8] = system: primary human myoblasts / myocytes
Experimental: Primary human skeletal muscle (HSKM) progenitors (Gibco) were cultured on gelatin solution (0.1%, Merck-Millipore)-coated plate and incubated in a humidified atmosphere (5% CO2 and 37° C.) with growth medium composed of DMEM/F-12 (Gibco) supplemented with fetal bovine serum (FBS) (20%, GE Healthcare), L-glutamine (1%, Gibco) and penicillin-streptomycin (1%, Gibco). Confluent HSKM progenitors were induced to differentiate by replacing growth media with differentiation medium, comprising of DMEM/F-12, KnockOut Serum Replacement (2%, Gibco), L-glutamine (1%, Gibco) and penicillin-streptomycin (1%, Gibco).
RNA was extracted using TRIzol (Thermo Fisher) and reverse transcribed to cDNA with Superscript III (Thermo Fisher) according to manufacturer's instructions. The synthesized cDNA was diluted 5× in H2O before performing qPCR with KAPA SYBR FAST (Merck) on ABI Prism 7900HT (Applied Biosystems) real-time PCR system according to manufacturers' instructions.
Cells were washed with PBS (Thermo Fisher) and fixed with paraformaldehyde (PFA) (4%, Electron Microscopy Sciences) at room temperature for 10 mins. Cells were stained with primary antibody myosin heavy chain eFluor 660 (1:20, 50-6503-82, Thermo Fisher) at 4 C overnight. DAPI (Merck) was used as a nuclear counterstain according to manufacturer's recommendations. Stained cells were imaged with a Zeiss fluorescence microscope.

[9] = system: cryoinjured tibialis anterior (TA) muscle
Experimental: Eight week old NOD scid gamma (NSG) or C57BL/6 mice were anaesthetized with a mixture of ketamine and xylazine (120 mg/kg and 8 mg/kg respectively) via intraperitoneal injection. After successful anesthetization, the skin over the tibialis anterior (TA) or gastrocnemius or quadriceps muscle was disinfected by wiping with 70% ethanol and a 3 mm incision was made over the TA muscle. A dry-ice-chilled 4-mm metal probe was directly applied onto the exposed skeletal muscle for three cycles of five seconds to induce cryo-injury. Thereafter, the incision was immediately sutured using a surgical suture stapler. Upon recovery under heat lamps for a period of 2 hours, the mice were randomly allocated to each treatment groups. […] Samples were serially sectioned until depleted and haemotoxylin and eosin (H&E) staining was performed on every 12th 5 um-thick tissue section. After microscopy imaging, the area of the cryo-injured myofibers was quantified using ImageJ. For western blot samples, TA muscles were snap-frozen in liquid nitrogen and homogenized in RIPA buffer (Thermo Fisher) supplemented with protease inhibitor cocktails I and II (Merck) and phosphatase inhibitor cocktail set III (Merck) using TissueLyser II (Qiagen).

[10] = system: cryoinjured TA muscle of aged and sarcopenic 2-year-old mice
Experimental: Liquid chromatography-tandem mass spectrometry (LC-MS/MS) metabolomics and lipidomics analyses were performed according to previously published protocols (Chong et al., 2012).
Eight week old NOD scid gamma (NSG) or C57BL/6 mice were anaesthetized with a mixture of ketamine and xylazine (120 mg/kg and 8 mg/kg respectively) via intraperitoneal injection. After successful anesthetization, the skin over the tibialis anterior (TA) or gastrocnemius or quadriceps muscle was disinfected by wiping with 70% ethanol and a 3 mm incision was made over the TA muscle. A dry-ice-chilled 4-mm metal probe was directly applied onto the exposed skeletal muscle for three cycles of five seconds to induce cryo-injury. Thereafter, the incision was immediately sutured using a surgical suture stapler. Upon recovery under heat lamps for a period of 2 hours, the mice were randomly allocated to each treatment groups. […] Samples were serially sectioned until depleted and haemotoxylin and eosin (H&E) staining was performed on every 12th 5 um-thick tissue section. After microscopy imaging, the area of the cryo-injured myofibers was quantified using ImageJ.
Tibialis anterior (TA) tissue samples embedded in paraffin were sectioned using a microtome and transferred onto Leica Microsystems Plus Slides. Some tissues were flash frozen for cryosectioning. Paraffin-embedded sections were deparaffinized in xylene (Merck) for 2 washes (10 mins) and then transferred sequentially into 100% EtOH (Merck), 100% EtOH, 95% EtOH and 70% EtOH (2 mins) at room temperature. The sections were then rehydrated in deionized water (3 mins). Antigen retrieval was carried out using the 2100 Retriever in sodium citrate buffer (Merck, pH 6.2, 30 mins). Slides were then cooled in cold PBS (15 mins) and blocked in blocking buffer at room temperature (30 mins). Primary antibody staining was conducted in blocking buffer at 4° C. overnight with the following antibodies, GFP (1:500, sc-9996, Santa Cruz), Pax7 (5 ug/ml, 042349, DSHB), MyoD (5 ug/ml, sc-377460, Santa Cruz), Ki67 (1:100, 14-5698-82, Thermo Fisher), embryonic MHC (Myh3; 1:100, sc-53091, Santa Cruz), PDGFRa (5 ug/mL, AF1062, R&D), F4/80 (1:100, ab6640, Abcam), PPARG (1:1000, 2443S, CST), and myosin heavy chain eFluor 660 (1:20, 50-6503-82, eBioscience). After the slides were washed thrice in PBS (10 mins) and counterstained with DAPI, secondary antibody staining for GFP was conducted in blocking buffer at room temperature (1 hr) with goat anti-mouse IgG secondary antibody, Alexa Fluor 488 (1:500, A11001, Thermo Fisher).

[11] = TA muscle 1-2 days post-cryoinjury
[12] = injured TA muscle, single bolus
[13] = differentiating myoblasts (24 h post-differentiation)
[14] = TA muscle, 2 days after intramuscular single bolus, with or without HGF
[15] = liver, skin and heart, 2-year-old mice
[16] = gastrocnemius muscle, 2 days after intraperitoneal single bolus, with or without fenofibrate or WY-14643
[17] = 2-year old mice, injected at 0 h after injury, 27 days post-injury

CCCCC[C@H](O)/C=C/[C@@H]1[C@H]2C/C(=C/CCCC(=O)O)O[C@H]2C[C@H]1O [PGI2, prostacyclin]
grip strength (cryoinjured TA muscle [1]): partially restore grip strength
hypertrophic growth (myofiber cross-sectional Feret diameters) (cryoinjured TA muscle [1]; TA muscle 6.5 days post-injury): increase hypertrophic growth
regenerative index (fraction of nuclei in embryonic MHC-positive myofibers) (cryoinjured TA muscle [1]; TA muscle 6.5 days post-injury): significantly increase muscle regeneration; also recorded: significantly promoted muscle regeneration
optimal PGI2 concentration for muscle regeneration (regenerative index saturated and peaked) (cryoinjured TA muscle [1]; titration of single bolus, TA muscle 6.5 days post-injury): 6.5 to 13 mM
H3K9ac levels (Western blot) (cryoinjured TA muscle [2]; [11]): increased protein acetylation and especially histone acetylation
PPARA protein (Western blot) (cryoinjured TA muscle [2]; [11]): suppresses the increase in PPARA; also recorded: suppressed PPARA protein
PPARD protein (Western blot) (cryoinjured TA muscle [2]; [11]): exerts little effect on PPARD
PPARG protein (Western blot) (cryoinjured TA muscle [2]; [11]): accelerates the increase in PPARG; also recorded: increased PPARG protein
percentage fraction of PPARG-positive cells (immunofluorescence) (cryoinjured TA muscle [2]; TA muscle 1-2 days post-freeze injury): significantly increase PPARG-positive cells
abundance of cyclic adenosine monophosphate (cAMP), MALDI-MSI (cryoinjured TA muscle [2]; TA muscle 6 days after single bolus): significantly decreased
committed myoblasts (MyoG-positive Ki67-positive cells, immunofluorescence) (cryoinjured TA muscle [2]; TA muscle over 6 days post-injury (days 2-4), single bolus at 0 h): significantly increase committed myoblasts; also recorded: significantly increased
PPARA and PPARD mRNA expression (qRT-PCR) (cryoinjured TA muscle [2]; [12]): not PPARA nor PPARD
PPARG mRNA expression (qRT-PCR) (cryoinjured TA muscle [2]; [12]): significantly increase PPARG mRNA expression
Pax7, MyoD, MyoG, Myh3 mRNA expression (qRT-PCR) (cryoinjured TA muscle [2]; [12]): significantly increased
PPARA, PPARD, PPARG, H3K9ac, PAX7, MyoD, MyoG and Myh3 protein expression (Western blot) (cryoinjured TA muscle [2]; non-injured and injured region of TA muscle, 6 days post-cryoinjury): can increase; also recorded: significantly increased all myogenesis markers
mRNA markers of myoblasts including MyoD1 and Pax3 [3, 13]: increased
mRNA markers of myogenic differentiation including Myog, Myhc, Myh2, Myh3, Myh7, Myh8, Acta1 [3, 13]: sufficient to block committed myocytes from undergoing terminal differentiation; also recorded: decreased
mRNA markers of myogenic differentiation including Myhc, Myh3, Myh8, and Acta1 ([3]; proliferative myoblasts (24 h pre-differentiation)): sufficient to promote proliferative myoblasts to undergo differentiation; also recorded: increased
H3K9ac and MyoD protein (Western blot) [3]: increases; also recorded: followed the same pattern of regulation as PPARG
PPARG protein levels (Western blot) [3]: increases PPARG protein; also recorded: stabilize and/or upregulate
proliferation (primary human myoblasts; early passage primary human myoblasts (passage 12)): significantly increased proliferation; also recorded: significantly increase the proliferation rate
proliferation (primary human myoblasts; late passage primary human myoblasts (passage 18)): significantly increased proliferation; also recorded: significantly increase the proliferation rate
percentage fraction of proliferative muscle stem cells (Pax7-positive Ki67-positive cells) [4, 14]: significantly increased
percentage fraction of proliferative myoblasts (MyoD-positive Ki67-positive cells) [4, 14]: significantly decreased
fraction of proliferative muscle stem cells (Pax7-positive Ki67-positive cells) ([4]; TA muscle, 2 days after intramuscular single bolus, without injury): significantly increased
relative changes in the % fibrotic area (Masson trichrome staining) ([5]; TA muscle): partially reverse the aged muscle fibrosis; also recorded: significant reversal of aging-induced fibrosis
relative changes in the percentage fraction of fibrotic precursors (PGDFRA-positive and Ki67-positive) ([5]; TA muscle): partially suppress the aged muscle fibrotic precursors
relative changes in the % fibrotic area (Masson trichrome staining) ([5]; heart tissue): partially reverse the aged cardiac fibrosis
relative changes in the percentage fraction of fibrotic precursors (PGDFRA-positive and Ki67-positive) ([5]; heart tissue): partially suppress the aged cardiac fibrotic precursors
relative changes in the % fibrotic area (Masson trichrome staining) ([5]; liver tissue): partially reverse the aged liver fibrosis
relative changes in the percentage fraction of fibrotic precursors (PGDFRA-positive and Ki67-positive) ([5]; liver tissue): partially suppress the aged liver fibrotic precursors
aging-induced fibrosis (fibrotic area) in multiple non-skeletal muscle tissues [5, 15]: significant reversal of aging-induced fibrosis
relative changes in the % fibrotic area (Masson trichrome staining) ([5]; skin tissue): partially reverse the aged skin fibrosis
relative changes in the percentage fraction of fibrotic precursors (PGDFRA-positive and Ki67-positive) ([5]; skin tissue): partially suppress the aged skin fibrotic precursors

Cc1cccc(Nc2cc(Cl)nc(SCC(=O)O)n2)c1C [WY-14643, pirinixic acid]
percentage fraction of myoblasts (MyoD-positive cells) [4, 16]: significantly increased
percentage fraction of proliferative myoblasts (MyoD-positive Ki67-positive cells) [4, 16]: significantly increased
EC50 (PPARA): 0.63 µM
EC50 (PPARG): 32 µM

CCOC(=O)[C@@]1(CCCCCCOc2ccc(Cl)cc2)CO1 [etomoxir]
MHC and MYOG protein phenotype (Western blot) ([6]; 0-24 h mitochondrial FAO inhibition): MHC^low; MYOG^low
MHC and MYOG protein phenotype (Western blot) ([6]; 24 h-48 h mitochondrial FAO inhibition): MHC^low; MYOG^high
MHC and MYOG protein phenotype (Western blot) ([6]; 48 h-72 h mitochondrial FAO inhibition): MHC^high; MYOG^low
MHC and MYOG protein phenotype (Western blot) ([6]; 72 h-96 h mitochondrial FAO inhibition): MHC^high; MYOG^high
myocyte survival (relative cell numbers) ([6]; treatment at 0-24 h and 24-48 h of myoblast differentiation): severely compromised myocyte survival
O2 consumption rates (human myocytes): decrease O2 consumption rates

CN(CCOc1ccc(CC2SC(=O)NC2=O)cc1)c1ccccn1 (stereo not drawn) [rosiglitazone]
MHC protein expression among the engrafting human myocytes [7]: significantly enhanced
grip strength (cryoinjured TA muscle [1]): partially restore grip strength
hypertrophic growth (myofiber cross-sectional Feret diameters) (cryoinjured TA muscle [1]; TA muscle 6.5 days post-injury): increase hypertrophic growth
regenerative index (fraction of nuclei in embryonic MHC-positive myofibers) (cryoinjured TA muscle [1]; TA muscle 6.5 days post-injury): significantly increase muscle regeneration
H3K9ac and MyoD protein (Western blot) [3]: followed the same pattern of regulation as PPARG
PPARG protein levels (Western blot) [3]: stabilize and/or upregulate
relative changes in the % fibrotic area (Masson trichrome staining) ([5]; TA muscle): partially reverse the aged muscle fibrosis; also recorded: significant reversal of aging-induced fibrosis
relative changes in the percentage fraction of fibrotic precursors (PGDFRA-positive and Ki67-positive) ([5]; TA muscle): partially suppress the aged muscle fibrotic precursors
relative changes in the % fibrotic area (Masson trichrome staining) ([5]; heart tissue): partially reverse the aged cardiac fibrosis
relative changes in the percentage fraction of fibrotic precursors (PGDFRA-positive and Ki67-positive) ([5]; heart tissue): partially suppress the aged cardiac fibrotic precursors
relative changes in the % fibrotic area (Masson trichrome staining) ([5]; liver tissue): partially reverse the aged liver fibrosis
relative changes in the percentage fraction of fibrotic precursors (PGDFRA-positive and Ki67-positive) ([5]; liver tissue): partially suppress the aged liver fibrotic precursors
PDGFRA+ Ki67+ fibrotic precursor numbers in multiple non-skeletal muscle tissues [5, 15]: suppress
aging-induced fibrosis (fibrotic area) in multiple non-skeletal muscle tissues [5, 15]: significant reversal of aging-induced fibrosis
relative changes in the % fibrotic area (Masson trichrome staining) ([5]; skin tissue): partially reverse the aged skin fibrosis
relative changes in the percentage fraction of fibrotic precursors (PGDFRA-positive and Ki67-positive) ([5]; skin tissue): partially suppress the aged skin fibrotic precursors
myogenesis (MHC protein and α-actinin immunostaining) ([8]; 0-24 h and 24-48 h time-windows, low density): significantly enhanced myogenesis
myotube/myofiber maturity and hypertrophy (immunofluorescence) ([8]; 0-24 h time-window, high density): more mature and hypertrophic human myotubes; also recorded: significantly more mature and hypertrophic; also recorded: induces myofibers with wider diameter and higher expression of MHC and α-actinin
mRNA levels of myogenin (MYOG), adult type I myosin heavy chain (MYH7) and perinatal myosin heavy chain (MYH8) ([8]; 0-24 h time-window, low density, at the end of 96 h): uniquely upregulated
myocyte/myotube size and MHC, α-actinin expression (immunofluorescence) ([8]; different time-windows, low density conditions): induces larger myocytes and myotubes with higher expression levels of MHC and α-actinin
mRNA levels of MYOG, MYH7 and MYH8 ([8]; other time-windows of treatment, low density, at the end of 96 h): no significant effects
myogenesis (MHC protein and α-actinin immunostaining) ([8]; other time-windows, low density): suppressed myogenesis
MHC protein isoforms and α-actinin protein levels (Western blot) ([9]; injection at 24 h and 48 h, relative to control and 0 h): stronger expression
skeletal muscle regeneration (remaining necrotic area) ([9]; injection at 24 h and 48 h after injury, 4 days post-injury): improved skeletal muscle regeneration
MyoD and MyoG protein expression (Western blot) ([9]; intramuscular injection at 24 h post-cryoinjury, TA 4 days post-injury): elicited the strongest expression
regenerative index (fraction of nuclei in embryonic MHC-positive myofibers) ([10]; 2-year old mice, injected at 0 h after injury, 6 days post-injury): can restore aged muscle regeneration; also recorded: significantly improved
fibrotic area in the TA muscle (Masson trichrome) [10, 17]: can reverse the aged muscle fibrosis; also recorded: significantly reduced fibrosis
grip strength [10, 17]: can partially restore grip strength
regenerative index (fraction of nuclei in embryonic MHC-positive myofibers) ([10]; 2-year old mice, injected at 24 h and 48 h time-points): did not show as strong an improvement
body weight or aging-induced obesity ([10]; 2-year-old mice, 27 days after single intramuscular bolus): no significant changes; also recorded: insufficient to affect total body weight and obesity
FAO intermediates (acyl-carnitines) / FAO flux in TA muscle, LC-MS/MS ([10]; 2-year-old mice, bolus at 0 h post-injury, day 6): led to an induction; also recorded: transiently increase FAO flux
